The values that follow are results of earlier work, collected in patent publication US20130259998A1, “FOODSTUFF PRESERVING COMPOSITION AND USE THEREOF” (NIACET B.V., priority 2012, published 2013).

For this data set the following is noted: ingredient as such.

In the case of `CC(=O)[O-].[Na+]` [sodium acetate], the pH as such was 8.9.
As to `CC(O)C(=O)[O-].[Na+]` (stereo not drawn) [sodium lactate], the pH as such was 6.3.
On to `CC(=O)O.CC(=O)O.NC(=N\CCCCCC/N=C(N)/N=C(\N)Nc1ccc(Cl)cc1)/N=C(\N)Nc1ccc(Cl)cc1` [diacetate], for which the pH as such is listed as 4.5-5.0.
